{"source": "ChEMBL document CHEMBL1201862", "about": "“PubChem BioAssay data set” (2004)", "assay_in_all_cases": "inhibition of tumour cell growth, NCI panel, 48 h", "key": {"[1]": {"tested_on": "SNB-75"}, "[2]": {"tested_on": "OVCAR-8"}, "[3]": {"tested_on": "OVCAR-5"}, "[4]": {"tested_on": "SW-620"}, "[5]": {"tested_on": "HOP-62"}, "[6]": {"tested_on": "MCF7"}, "[7]": {"tested_on": "HCC 2998"}, "[8]": {"tested_on": "NCI-H460"}, "[9]": {"tested_on": "NCI-H522"}, "[10]": {"tested_on": "EKVX"}, "[11]": {"tested_on": "786-0"}, "[12]": {"tested_on": "NCI/ADR-RES"}, "[13]": {"tested_on": "MDA-N"}, "[14]": {"tested_on": "HT-29"}, "[15]": {"tested_on": "SN12C"}, "[16]": {"tested_on": "OVCAR-3"}, "[17]": {"tested_on": "KM12"}, "[18]": {"tested_on": "COLO 205"}, "[19]": {"tested_on": "CCRF-CEM"}}, "note": "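Compound exposure: 48 hours, 5 concentrations, 96-well plates. GI50 marks 50% less growth.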 Active and inactive are the calls of the source. Cut-off read from the data, not from the text of the source: active = GI50 up to about 1.1 µM and inactive = higher.", "data": [{"smiles": "CC(C)(O)/C=C\\P(=O)(O)O", "values": [{"measurement": "GI50", "setting": "[1]", "value": "> 100 µM (inactive)"}, {"measurement": "GI50", "setting": "[2]", "value": "> 100 µM (inactive)"}, {"measurement": "GI50", "setting": "[3]", "value": "> 100 µM (inactive)"}, {"measurement": "GI50", "setting": "[4]", "value": "> 100 µM (inactive)"}, {"measurement": "GI50", "setting": "[5]", "value": "> 100 µM (inactive)"}, {"measurement": "GI50", "setting": "[6]", "value": "> 100 µM (inactive)"}, {"measurement": "GI50", "setting": "[7]", "value": "> 100 µM (inactive)"}, {"measurement": "GI50", "setting": "[8]", "value": "> 100 µM (inactive)"}, {"measurement": "GI50", "setting": "[9]", "value": "> 100 µM (inactive)"}, {"measurement": "GI50", "setting": "[10]", "value": "> 100 µM (inactive)"}, {"measurement": "GI50", "setting": "[11]", "value": "> 100 µM (inactive)"}, {"measurement": "GI50", "setting": "[12]", "value": "> 100 µM (inactive)"}, {"measurement": "GI50", "setting": "[13]", "value": "> 100 µM (inactive)"}, {"measurement": "GI50", "setting": "[14]", "value": "> 100 µM (inactive)"}, {"measurement": "GI50", "setting": "[15]", "value": "> 100 µM (inactive)"}, {"measurement": "GI50", "setting": "[16]", "value": "> 100 µM (inactive)"}, {"measurement": "GI50", "setting": "[17]", "value": "> 100 µM (inactive)"}, {"measurement": "GI50", "setting": "[18]", "value": "> 100 µM (inactive)"}]}, {"smiles": "O=[N+]([O-])c1ccc(Cl)cc1C1ON=C(c2ccccc2)N1C12CC3CC(CC(C3)C1)C2", "note": "(stereo unspecified)", "values": [{"measurement": "GI50", "setting": "[1]", "value": "0.0245 µM (active)"}, {"measurement": "GI50", "setting": "[3]", "value": "> 100 µM (inactive)"}, {"measurement": "GI50", "setting": "[5]", "value": "> 100 µM (inactive)"}, {"measurement": "GI50", "setting": "[6]", "value": "> 100 µM (inactive)"}, {"measurement": "GI50", "setting": "[7]", "value": "> 100 µM (inactive)"}, {"measurement": "GI50", "setting": "[8]", "value": "> 100 µM (inactive)"}, {"measurement": "GI50", "setting": "[9]", "value": "> 100 µM (inactive)"}, {"measurement": "GI50", "setting": "[10]", "value": "> 100 µM (inactive)"}, {"measurement": "GI50", "setting": "[11]", "value": "> 100 µM (inactive)"}, {"measurement": "GI50", "setting": "[12]", "value": "> 100 µM (inactive)"}, {"measurement": "GI50", "setting": "[19]", "value": "> 100 µM (inactive)"}, {"measurement": "GI50", "setting": "[13]", "value": "> 100 µM (inactive)"}, {"measurement": "GI50", "setting": "[14]", "value": "> 100 µM (inactive)"}, {"measurement": "GI50", "setting": "[15]", "value": "> 100 µM (inactive)"}, {"measurement": "GI50", "setting": "[16]", "value": "97.7 µM (inactive)"}, {"measurement": "GI50", "setting": "[18]", "value": "> 100 µM (inactive)"}]}, {"smiles": "CC(=O)N1CC(C)(C)c2c1cc(C)c(O)c2C", "values": [{"measurement": "GI50", "setting": "[2]", "value": "> 100 µM (inactive)"}, {"measurement": "GI50", "setting": "[3]", "value": "> 100 µM (inactive)"}, {"measurement": "GI50", "setting": "[4]", "value": "> 100 µM (inactive)"}, {"measurement": "GI50", "setting": "[5]", "value": "> 100 µM (inactive)"}, {"measurement": "GI50", "setting": "[6]", "value": "> 100 µM (inactive)"}, {"measurement": "GI50", "setting": "[7]", "value": "> 100 µM (inactive)"}, {"measurement": "GI50", "setting": "[8]", "value": "> 100 µM (inactive)"}, {"measurement": "GI50", "setting": "[9]", "value": "> 100 µM (inactive)"}, {"measurement": "GI50", "setting": "[10]", "value": "> 100 µM (inactive)"}, {"measurement": "GI50", "setting": "[11]", "value": "> 100 µM (inactive)"}, {"measurement": "GI50", "setting": "[12]", "value": "> 100 µM (inactive)"}, {"measurement": "GI50", "setting": "[19]", "value": "> 100 µM (inactive)"}, {"measurement": "GI50", "setting": "[13]", "value": "> 100 µM (inactive)"}, {"measurement": "GI50", "setting": "[14]", "value": "> 100 µM (inactive)"}, {"measurement": "GI50", "setting": "[15]", "value": "> 100 µM (inactive)"}, {"measurement": "GI50", "setting": "[16]", "value": "> 100 µM (inactive)"}, {"measurement": "GI50", "setting": "[17]", "value": "> 100 µM (inactive)"}, {"measurement": "GI50", "setting": "[18]", "value": "> 100 µM (inactive)"}]}, {"smiles": "CNC(=O)N(CCCCC(NC(C)=O)C(=O)NCc1ccccc1)Cc1ccccc1", "note": "(stereo unspecified)", "values": [{"measurement": "GI50", "setting": "[1]", "value": "> 100 µM (inactive)"}, {"measurement": "GI50", "setting": "[2]", "value": "> 100 µM (inactive)"}, {"measurement": "GI50", "setting": "[3]", "value": "> 100 µM (inactive)"}, {"measurement": "GI50", "setting": "[4]", "value": "> 100 µM (inactive)"}, {"measurement": "GI50", "setting": "[5]", "value": "> 100 µM (inactive)"}, {"measurement": "GI50", "setting": "[7]", "value": "> 100 µM (inactive)"}, {"measurement": "GI50", "setting": "[8]", "value": "> 100 µM (inactive)"}, {"measurement": "GI50", "setting": "[9]", "value": "> 100 µM (inactive)"}, {"measurement": "GI50", "setting": "[10]", "value": "> 100 µM (inactive)"}, {"measurement": "GI50", "setting": "[11]", "value": "> 100 µM (inactive)"}, {"measurement": "GI50", "setting": "[19]", "value": "> 100 µM (inactive)"}, {"measurement": "GI50", "setting": "[14]", "value": "> 100 µM (inactive)"}, {"measurement": "GI50", "setting": "[15]", "value": "> 100 µM (inactive)"}, {"measurement": "GI50", "setting": "[16]", "value": "> 100 µM (inactive)"}, {"measurement": "GI50", "setting": "[17]", "value": "> 100 µM (inactive)"}, {"measurement": "GI50", "setting": "[18]", "value": "> 100 µM (inactive)"}]}, {"smiles": "COC(=O)C1CCC(=O)N1CN(C(C)=O)c1cccc(O)c1", "note": "(stereo unspecified)", "values": [{"measurement": "GI50", "setting": "[1]", "value": "> 100 µM (inactive)"}, {"measurement": "GI50", "setting": "[2]", "value": "> 100 µM (inactive)"}, {"measurement": "GI50", "setting": "[3]", "value": "> 100 µM (inactive)"}, {"measurement": "GI50", "setting": "[4]", "value": "> 100 µM (inactive)"}, {"measurement": "GI50", "setting": "[5]", "value": "> 100 µM (inactive)"}, {"measurement": "GI50", "setting": "[6]", "value": "> 100 µM (inactive)"}, {"measurement": "GI50", "setting": "[8]", "value": "> 100 µM (inactive)"}, {"measurement": "GI50", "setting": "[9]", "value": "> 100 µM (inactive)"}, {"measurement": "GI50", "setting": "[10]", "value": "> 100 µM (inactive)"}, {"measurement": "GI50", "setting": "[11]", "value": "> 100 µM (inactive)"}, {"measurement": "GI50", "setting": "[12]", "value": "> 100 µM (inactive)"}, {"measurement": "GI50", "setting": "[13]", "value": "> 100 µM (inactive)"}, {"measurement": "GI50", "setting": "[14]", "value": "> 100 µM (inactive)"}, {"measurement": "GI50", "setting": "[15]", "value": "> 100 µM (inactive)"}, {"measurement": "GI50", "setting": "[16]", "value": "> 100 µM (inactive)"}, {"measurement": "GI50", "setting": "[17]", "value": "> 100 µM (inactive)"}, {"measurement": "GI50", "setting": "[18]", "value": "> 100 µM (inactive)"}]}, {"smiles": "COc1cc(CNc2nc3ccc(C(F)(F)F)cc3nc2-c2ccccc2)cc(OC)c1OC", "values": [{"measurement": "GI50", "setting": "[1]", "value": "8.38 µM (inactive)"}, {"measurement": "GI50", "setting": "[2]", "value": "47.5 µM (inactive)"}, {"measurement": "GI50", "setting": "[3]", "value": "> 100 µM (inactive)"}, {"measurement": "GI50", "setting": "[4]", "value": "21 µM (inactive)"}, {"measurement": "GI50", "setting": "[5]", "value": "76.6 µM (inactive)"}, {"measurement": "GI50", "setting": "[7]", "value": "38.8 µM (inactive)"}, {"measurement": "GI50", "setting": "[8]", "value": "34.1 µM (inactive)"}, {"measurement": "GI50", "setting": "[9]", "value": "11.5 µM (inactive)"}, {"measurement": "GI50", "setting": "[10]", "value": "11.9 µM (inactive)"}, {"measurement": "GI50", "setting": "[11]", "value": "28.3 µM (inactive)"}, {"measurement": "GI50", "setting": "[19]", "value": "15.3 µM (inactive)"}, {"measurement": "GI50", "setting": "[14]", "value": "32.9 µM (inactive)"}, {"measurement": "GI50", "setting": "[15]", "value": "29.6 µM (inactive)"}, {"measurement": "GI50", "setting": "[16]", "value": "26.4 µM (inactive)"}, {"measurement": "GI50", "setting": "[17]", "value": "24.6 µM (inactive)"}, {"measurement": "GI50", "setting": "[18]", "value": "38.5 µM (inactive)"}]}]}
